Data as given in BindingDB's records for doi:10.1021/jm0104062 (Louis Pasteur University, 2002).

Molecular target: P2Y purinoceptor 1 (Homo sapiens, UniProt P47900)
Experiment: pA2 value was evaluated against P2Y purinoceptor 1

Sequence of P2Y purinoceptor 1 (P47900 whole entry): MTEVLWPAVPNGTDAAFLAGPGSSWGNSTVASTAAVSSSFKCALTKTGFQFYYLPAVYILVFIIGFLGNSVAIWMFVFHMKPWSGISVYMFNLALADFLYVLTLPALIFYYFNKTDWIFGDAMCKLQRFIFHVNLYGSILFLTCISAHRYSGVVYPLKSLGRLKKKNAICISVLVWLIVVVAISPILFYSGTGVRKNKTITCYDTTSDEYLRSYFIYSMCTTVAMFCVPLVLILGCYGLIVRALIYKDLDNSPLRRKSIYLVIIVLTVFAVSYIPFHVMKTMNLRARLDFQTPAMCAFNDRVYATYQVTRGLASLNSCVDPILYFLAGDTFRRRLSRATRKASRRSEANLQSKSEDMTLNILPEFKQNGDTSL

Kd: 77.6 nM
SMILES: CNc1nc(C)nc2c1ncn2C1CC(OP(=O)(O)O)C(COP(=O)(O)O)O1 (stereo unspecified)
